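These data come from cells grown in 96-well plates and exposed to compound for 48 hours at five concentrations. Here, GI50 denotes the concentration required for 50% inhibition of growth. TGI: total growth inhibition.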
Experiments:
Assay in all cases: growth of human tumour cells (NCI), 48 h; in the data active = GI50 below about 0.43 µM; inactive = the rest
PC-3 prostate = tested on: PC-3 prostate
NCI-H226 lung = tested on: NCI-H226 lung
NCI-H23 lung = tested on: NCI-H23 lung
SK-MEL-28 melanoma = tested on: SK-MEL-28 melanoma
OVCAR-8 ovarian = tested on: OVCAR-8 ovarian
COLO 205 colon = tested on: COLO 205 colon
OVCAR-5 ovarian = tested on: OVCAR-5 ovarian
HCT-15 colon = tested on: HCT-15 colon
U251 CNS = tested on: U251 CNS
CAKI-1 renal = tested on: CAKI-1 renal
UO-31 renal = tested on: UO-31 renal
HT29 colon = tested on: HT29 colon
HCC-2998 colon = tested on: HCC-2998 colon
MDA-MB-231 breast = tested on: MDA-MB-231 breast
SF-295 CNS = tested on: SF-295 CNS
ACHN renal = tested on: ACHN renal
BT-549 breast = tested on: BT-549 breast
SW-620 colon = tested on: SW-620 colon
SNB-19 CNS = tested on: SNB-19 CNS
KM12 colon = tested on: KM12 colon
A498 renal = tested on: A498 renal
MOLT-4 leukemia = tested on: MOLT-4 leukemia
SF-539 CNS = tested on: SF-539 CNS
TK-10 renal = tested on: TK-10 renal
HOP-92 NSCLC = tested on: HOP-92 NSCLC
SNB-75 CNS = tested on: SNB-75 CNS
LOX IMVI melanoma = tested on: LOX IMVI melanoma
HS 578T breast = tested on: HS 578T breast
MCF7 breast = tested on: MCF7 breast
K-562 leukemia = tested on: K-562 leukemia
MALME-3M melanoma = tested on: MALME-3M melanoma
UACC-257 melanoma = tested on: UACC-257 melanoma
786-0 renal = tested on: 786-0 renal
A549 NSCLC = tested on: A549 NSCLC
RPMI-8226 leukemia = tested on: RPMI-8226 leukemia
OVCAR-3 ovarian = tested on: OVCAR-3 ovarian
HCT-116 colon = tested on: HCT-116 colon
RXF 393 renal = tested on: RXF 393 renal
OVCAR-4 ovarian = tested on: OVCAR-4 ovarian
SK-MEL-5 melanoma = tested on: SK-MEL-5 melanoma
SF-268 CNS = tested on: SF-268 CNS
NCI-H522 lung = tested on: NCI-H522 lung
SN12C renal = tested on: SN12C renal
HL-60(TB) leukemia = tested on: HL-60(TB) leukemia
EKVX NSCLC = tested on: EKVX NSCLC
UACC-62 melanoma = tested on: UACC-62 melanoma
CCRF-CEM leukemia = tested on: CCRF-CEM leukemia
NCI-H460 lung = tested on: NCI-H460 lung
DU-145 prostate = tested on: DU-145 prostate
HOP-62 NSCLC = tested on: HOP-62 NSCLC
SR leukemia = tested on: SR leukemia
SK-OV-3 ovarian = tested on: SK-OV-3 ovarian
MDA-MB-435 = tested on: MDA-MB-435
NCI/ADR-RES ovarian = tested on: NCI/ADR-RES ovarian
IGROV1 ovarian = tested on: IGROV1 ovarian
SK-MEL-2 melanoma = tested on: SK-MEL-2 melanoma
T-47D breast = tested on: T-47D breast
M14 melanoma = tested on: M14 melanoma

COc1ccc([C@H]2O[C@@H](CO)C[C@]2(O)c2ccc(OC)cc2)cc1
> 100 µM: TGI (PC-3 prostate) | TGI (NCI-H226 lung) | TGI (NCI-H23 lung) | TGI (SK-MEL-28 melanoma) | TGI (OVCAR-8 ovarian) | TGI (COLO 205 colon) | TGI (OVCAR-5 ovarian) | TGI (HCT-15 colon) | TGI (U251 CNS) | TGI (CAKI-1 renal) | TGI (UO-31 renal) | TGI (HT29 colon) | TGI (HCC-2998 colon) | TGI (MDA-MB-231 breast) | TGI (SF-295 CNS) | TGI (ACHN renal) | TGI (BT-549 breast) | TGI (SW-620 colon) | TGI (SNB-19 CNS) | TGI (KM12 colon) | TGI (A498 renal) | TGI (MOLT-4 leukemia) | TGI (SF-539 CNS) | TGI (TK-10 renal) | TGI (HOP-92 NSCLC) | TGI (SNB-75 CNS) | TGI (LOX IMVI melanoma) | TGI (HS 578T breast) | TGI (MCF7 breast) | TGI (K-562 leukemia) | TGI (MALME-3M melanoma) | TGI (UACC-257 melanoma) | TGI (786-0 renal) | TGI (A549 NSCLC) | TGI (RPMI-8226 leukemia) | TGI (OVCAR-3 ovarian) | TGI (HCT-116 colon) | TGI (RXF 393 renal) | TGI (OVCAR-4 ovarian) | TGI (SK-MEL-5 melanoma) | TGI (SF-268 CNS) | TGI (NCI-H522 lung) | TGI (SN12C renal) | TGI (HL-60(TB) leukemia) | TGI (EKVX NSCLC) | TGI (UACC-62 melanoma) | TGI (CCRF-CEM leukemia) | TGI (NCI-H460 lung) | TGI (DU-145 prostate) | TGI (HOP-62 NSCLC) | TGI (SR leukemia) | TGI (SK-OV-3 ovarian) | TGI (MDA-MB-435) | TGI (NCI/ADR-RES ovarian) | TGI (IGROV1 ovarian)
inactive: GI50 (PC-3 prostate) > 100 µM | GI50 (NCI-H226 lung) > 100 µM | GI50 (NCI-H23 lung) > 100 µM | GI50 (SK-MEL-28 melanoma) > 100 µM | GI50 (OVCAR-8 ovarian) > 100 µM | GI50 (COLO 205 colon) > 100 µM | GI50 (OVCAR-5 ovarian) > 100 µM | GI50 (HCT-15 colon) > 100 µM | GI50 (U251 CNS) > 100 µM | GI50 (CAKI-1 renal) > 100 µM | GI50 (UO-31 renal) > 100 µM | GI50 (HT29 colon) > 100 µM | GI50 (HCC-2998 colon) > 100 µM | GI50 (MDA-MB-231 breast) > 100 µM | GI50 (SF-295 CNS) > 100 µM | GI50 (ACHN renal) > 100 µM | GI50 (BT-549 breast) > 100 µM | GI50 (SW-620 colon) > 100 µM | GI50 (SNB-19 CNS) > 100 µM | GI50 (KM12 colon) > 100 µM | GI50 (A498 renal) > 100 µM | GI50 (MOLT-4 leukemia) > 100 µM | GI50 (SF-539 CNS) > 100 µM | GI50 (TK-10 renal) > 100 µM | GI50 (HOP-92 NSCLC) 95.6 µM | GI50 (SNB-75 CNS) > 100 µM | GI50 (LOX IMVI melanoma) > 100 µM | GI50 (HS 578T breast) 39.5 µM | GI50 (MCF7 breast) > 100 µM | GI50 (K-562 leukemia) > 100 µM | GI50 (MALME-3M melanoma) > 100 µM | GI50 (UACC-257 melanoma) > 100 µM | GI50 (786-0 renal) > 100 µM | GI50 (A549 NSCLC) > 100 µM | GI50 (RPMI-8226 leukemia) > 100 µM | GI50 (OVCAR-3 ovarian) > 100 µM | GI50 (HCT-116 colon) > 100 µM | GI50 (RXF 393 renal) 28.4 µM | GI50 (OVCAR-4 ovarian) > 100 µM | GI50 (SK-MEL-5 melanoma) > 100 µM | GI50 (SF-268 CNS) > 100 µM | GI50 (NCI-H522 lung) > 100 µM | GI50 (SN12C renal) > 100 µM | GI50 (HL-60(TB) leukemia) 39.3 µM | GI50 (EKVX NSCLC) > 100 µM | GI50 (UACC-62 melanoma) > 100 µM | GI50 (CCRF-CEM leukemia) > 100 µM | GI50 (NCI-H460 lung) > 100 µM | GI50 (DU-145 prostate) > 100 µM | GI50 (HOP-62 NSCLC) > 100 µM | GI50 (SR leukemia) 49.8 µM | GI50 (SK-OV-3 ovarian) > 100 µM | GI50 (MDA-MB-435) > 100 µM | GI50 (NCI/ADR-RES ovarian) > 100 µM | GI50 (IGROV1 ovarian) > 100 µM

CC(C)(C)CC(C)(C)c1ccc(OCCOCCSC(=N)N)cc1
3.29 µM: TGI (NCI-H460 lung)
5.58 µM: TGI (SNB-19 CNS)
2.94 µM: TGI (MDA-MB-231 breast)
3.49 µM: TGI (SK-MEL-2 melanoma)
7.39 µM: TGI (SK-OV-3 ovarian)
12.5 µM: TGI (SF-268 CNS)
3.36 µM: TGI (HOP-62 NSCLC)
3.62 µM: TGI (SN12C renal)
7.25 µM: TGI (PC-3 prostate)
8.77 µM: TGI (A549 NSCLC)
3.31 µM: TGI (SF-539 CNS)
3.18 µM: TGI (UACC-257 melanoma) | TGI (NCI-H522 lung)
3.1 µM: TGI (OVCAR-4 ovarian)
3.58 µM: TGI (K-562 leukemia) | TGI (HL-60(TB) leukemia)
6.02 µM: TGI (CCRF-CEM leukemia)
3.42 µM: TGI (HT29 colon)
7.38 µM: TGI (NCI-H23 lung)
3.34 µM: TGI (SW-620 colon) | TGI (DU-145 prostate)
5.87 µM: TGI (CAKI-1 renal)
2.56 µM: TGI (HCC-2998 colon)
5.19 µM: TGI (TK-10 renal)
2.83 µM: TGI (HCT-116 colon)
16 µM: TGI (BT-549 breast)
3.22 µM: TGI (ACHN renal) | TGI (MCF7 breast)
3.56 µM: TGI (OVCAR-8 ovarian)
4.48 µM: TGI (OVCAR-3 ovarian)
6.14 µM: TGI (HS 578T breast)
6.5 µM: TGI (OVCAR-5 ovarian)
3.39 µM: TGI (M14 melanoma)
2.84 µM: TGI (MDA-MB-435)
3.12 µM: TGI (COLO 205 colon)
7.92 µM: TGI (HOP-92 NSCLC)
4.81 µM: TGI (IGROV1 ovarian)
3.91 µM: TGI (UO-31 renal)
3.24 µM: TGI (SK-MEL-28 melanoma) | TGI (UACC-62 melanoma)
6.17 µM: TGI (MOLT-4 leukemia)
3.33 µM: TGI (KM12 colon)
6.61 µM: TGI (NCI/ADR-RES ovarian)
3.46 µM: TGI (786-0 renal)
3.54 µM: TGI (T-47D breast)
inactive: GI50 (PC-3 prostate) 2.37 µM | GI50 (NCI-H23 lung) 2.85 µM | GI50 (SK-MEL-28 melanoma) 1.72 µM | GI50 (SK-MEL-2 melanoma) 2.02 µM | GI50 (OVCAR-8 ovarian) 1.86 µM | GI50 (T-47D breast) 1.68 µM | GI50 (COLO 205 colon) 1.65 µM | GI50 (OVCAR-5 ovarian) 2.4 µM | GI50 (HCT-15 colon) 1.8 µM | GI50 (U251 CNS) 1.65 µM | GI50 (CAKI-1 renal) 2.28 µM | GI50 (UO-31 renal) 1.75 µM | GI50 (HT29 colon) 1.78 µM | GI50 (HCC-2998 colon) 1.25 µM | GI50 (MDA-MB-231 breast) 1.34 µM | GI50 (SF-295 CNS) 1.72 µM | GI50 (ACHN renal) 1.72 µM | GI50 (BT-549 breast) 3.84 µM | GI50 (SW-620 colon) 1.65 µM | GI50 (SNB-19 CNS) 2.17 µM | GI50 (KM12 colon) 1.78 µM | GI50 (MOLT-4 leukemia) 2.35 µM | GI50 (SF-539 CNS) 1.81 µM | GI50 (TK-10 renal) 2.47 µM | GI50 (HOP-92 NSCLC) 1.89 µM | GI50 (SNB-75 CNS) 1.37 µM | GI50 (LOX IMVI melanoma) 1.72 µM | GI50 (HS 578T breast) 2.28 µM | GI50 (MCF7 breast) 1.51 µM | GI50 (K-562 leukemia) 1.51 µM | GI50 (UACC-257 melanoma) 1.69 µM | GI50 (786-0 renal) 1.71 µM | GI50 (A549 NSCLC) 2.65 µM | GI50 (OVCAR-3 ovarian) 2.05 µM | GI50 (HCT-116 colon) 1.5 µM | GI50 (RXF 393 renal) 1.78 µM | GI50 (OVCAR-4 ovarian) 1.54 µM | GI50 (SF-268 CNS) 3.58 µM | GI50 (NCI-H522 lung) 1.71 µM | GI50 (SN12C renal) 1.81 µM | GI50 (HL-60(TB) leukemia) 1.79 µM | GI50 (UACC-62 melanoma) 1.75 µM | GI50 (CCRF-CEM leukemia) 2.46 µM | GI50 (NCI-H460 lung) 1.75 µM | GI50 (DU-145 prostate) 1.84 µM | GI50 (HOP-62 NSCLC) 1.87 µM | GI50 (SK-OV-3 ovarian) 2.74 µM | GI50 (MDA-MB-435) 1.51 µM | GI50 (NCI/ADR-RES ovarian) 2.59 µM | GI50 (IGROV1 ovarian) 2.3 µM | GI50 (M14 melanoma) 1.8 µM
3.27 µM: TGI (SF-295 CNS)
3.09 µM: TGI (LOX IMVI melanoma)
3.04 µM: TGI (U251 CNS)
3.59 µM: TGI (RXF 393 renal)
3.85 µM: TGI (HCT-15 colon) | TGI (SNB-75 CNS)
